Reference: patent US20020137154A1, “Methods for improving cell growth and alcohol production during fermentation” (priority 2000, published 2002)
Where two headings read alike, the source gives them in different places.

Test system: recombinant Escherichia coli KO11
Test: Batch fermentation of E. coli KO11 in 1% CSL medium and xylose with nutrient additives: ethanol production and cell growth
Type: cell-based
Settings: for Ethanol Production Maximum / Ethanol yield / Initial Growth (OD @ 24 h) OD / Maximum Cell Density OD / Maximum Cell Density Time / Volumetric Productivity Average / Volumetric Productivity Maximum: 1% CSL+xylose; for activity at 250 µg/mL / activity at 100 µg/mL / activity at 500 µg/mL: Escherichia coli
[1] = 1% CSL and xylose, 0.25 g/L at the start and after 12 hours
[2] = 3 × 0.25 g/L (start, 12 h, 24 h)

## CC=O [Acetaldehyde, acetaldehyde]
[1]
  ethanol production as compared to the control: highest amount of ethanol production
  initial growth and maximum cell density as compared to a control: greatest initial growth and maximum cell density
0.1 g/L at start
  Ethanol Production Maximum: 29.51 g/L
  Ethanol yield: 0.304 grams of ethanol/grams of added sugar
  Initial Growth (OD @ 24 h) OD: 2.25 OD
  Maximum Cell Density OD: 2.56 OD
  Maximum Cell Density Time: 48 h
  Volumetric Productivity Average: 0.307 grams ethanol/(liter)(hour)
  Volumetric Productivity Maximum: 0.389 grams ethanol/(liter)(hour)
0.25 g/L at start
  Ethanol Production Maximum: 34.45 g/L
  Ethanol yield: 0.355 grams of ethanol/grams of added sugar
  Initial Growth (OD @ 24 h) OD: 2.48 OD
  Maximum Cell Density OD: 3.12 OD
  Maximum Cell Density Time: 96 h
  Volumetric Productivity Average: 0.359 grams ethanol/(liter)(hour)
  Volumetric Productivity Maximum: 0.425 grams ethanol/(liter)(hour)
0.5 g/L at start
  Ethanol Production Maximum: 42.66 g/L
  Ethanol yield: 0.439 grams of ethanol/grams of added sugar
  Initial Growth (OD @ 24 h) OD: 2.55 OD
  Maximum Cell Density OD: 4.31 OD
  Maximum Cell Density Time: 96 h
  Volumetric Productivity Average: 0.444 grams ethanol/(liter)(hour)
  Volumetric Productivity Maximum: 0.623 grams ethanol/(liter)(hour)
2 × 0.25 g/L (start, 12 h)
  Ethanol Production Maximum: 45.57 g/L
  Ethanol yield: 0.469 grams of ethanol/grams of added sugar
  Initial Growth (OD @ 24 h) OD: 3.36 OD
  Maximum Cell Density OD: 4.67 OD
  Maximum Cell Density Time: 96 h
  Volumetric Productivity Average: 0.475 grams ethanol/(liter)(hour)
  Volumetric Productivity Maximum: 0.740 grams ethanol/(liter)(hour)
[2]
  Ethanol Production Maximum: 38.21 g/L
  Ethanol yield: 0.393 grams of ethanol/grams of added sugar
  Initial Growth (OD @ 24 h) OD: 3.04 OD
  Maximum Cell Density OD: 4.02 OD
  Maximum Cell Density Time: 48 h
  Volumetric Productivity Average: 0.398 grams ethanol/(liter)(hour)
  Volumetric Productivity Maximum: 0.540 grams ethanol/(liter)(hour)
12 h, read-out: Ethanol Production Maximum % Control, 1% CSL+xylose, 2 × 0.25 g/L (start, 12 h)
  activity at 250 µg/mL: 152%
12 h, read-out: Maximum Cell Density % Control, 1% CSL+xylose, 2 × 0.25 g/L (start, 12 h)
  activity at 250 µg/mL: 186%
12 h, read-out: Volumetric Productivity Average % Control, 1% CSL+xylose, 2 × 0.25 g/L (start, 12 h)
  activity at 250 µg/mL: 152%
12 h, read-out: Volumetric Productivity Maximum % Control, 1% CSL+xylose, 2 × 0.25 g/L (start, 12 h)
  activity at 250 µg/mL: 201%
24 h, read-out: Initial Growth (OD @ 24 h) % Control, 1% CSL+xylose, 0.1 g/L at start
  activity at 100 µg/mL: 110%
24 h, read-out: Initial Growth (OD @ 24 h) % Control, 1% CSL+xylose, 0.25 g/L at start
  activity at 250 µg/mL: 121%
24 h, read-out: Initial Growth (OD @ 24 h) % Control, 1% CSL+xylose, 0.5 g/L at start
  activity at 500 µg/mL: 125%
24 h, read-out: Initial Growth (OD @ 24 h) % Control, 1% CSL+xylose, 2 × 0.25 g/L (start, 12 h)
  activity at 250 µg/mL: 165%
24 h, read-out: Initial Growth (OD @ 24 h) % Control, 1% CSL+xylose, 3 × 0.25 g/L (start, 12 h, 24 h)
  activity at 250 µg/mL: 149%
read-out: Ethanol Production Maximum % Control, 1% CSL+xylose, 0.1 g/L at start
  activity at 100 µg/mL: 98.1%
read-out: Ethanol Production Maximum % Control, 1% CSL+xylose, 0.25 g/L at start
  activity at 250 µg/mL: 115%
read-out: Ethanol Production Maximum % Control, 1% CSL+xylose, 0.5 g/L at start
  activity at 500 µg/mL: 142%
read-out: Ethanol Production Maximum % Control, 1% CSL+xylose, 3 × 0.25 g/L (start, 12 h, 24 h)
  activity at 250 µg/mL: 127%
read-out: Maximum Cell Density % Control, 1% CSL+xylose, 0.1 g/L at start
  activity at 100 µg/mL: 102%
read-out: Maximum Cell Density % Control, 1% CSL+xylose, 0.25 g/L at start
  activity at 250 µg/mL: 124%
read-out: Maximum Cell Density % Control, 1% CSL+xylose, 0.5 g/L at start
  activity at 500 µg/mL: 171%
read-out: Maximum Cell Density % Control, 1% CSL+xylose, 3 × 0.25 g/L (start, 12 h, 24 h)
  activity at 250 µg/mL: 160%
read-out: Volumetric Productivity Average % Control, 1% CSL+xylose, 0.1 g/L at start
  activity at 100 µg/mL: 98.1%
read-out: Volumetric Productivity Average % Control, 1% CSL+xylose, 0.25 g/L at start
  activity at 250 µg/mL: 115%
read-out: Volumetric Productivity Average % Control, 1% CSL+xylose, 0.5 g/L at start
  activity at 500 µg/mL: 142%
read-out: Volumetric Productivity Average % Control, 1% CSL+xylose, 3 × 0.25 g/L (start, 12 h, 24 h)
  activity at 250 µg/mL: 127%
read-out: Volumetric Productivity Maximum % Control, 1% CSL+xylose, 0.1 g/L at start
  activity at 100 µg/mL: 106%
read-out: Volumetric Productivity Maximum % Control, 1% CSL+xylose, 0.25 g/L at start
  activity at 250 µg/mL: 115%
read-out: Volumetric Productivity Maximum % Control, 1% CSL+xylose, 0.5 g/L at start
  activity at 500 µg/mL: 169%
read-out: Volumetric Productivity Maximum % Control, 1% CSL+xylose, 3 × 0.25 g/L (start, 12 h, 24 h)
  activity at 250 µg/mL: 147%
